In patent US11286459B2, “Cell culturing method using nucleic acid-containing medium” (Astellas Pharma Inc., priority 2015, dated 2022):

What was measured:
Type in all cases: cell-based, Chinese hamster
[1] = tested on: IgG-expressing CHO cell line (anti-human α9 antibody RY9A2v12 (M34L) 012); experiment: Fed-batch culture with deoxyuridine, thymidine and/or deoxycytidine (Example 4); settings: 25 mg/L
Experimental: Using a culture medium for animal cells as a cell growth medium, fed-batch culture of an IgG-expressing CHO cell line (a CHO cell line in which an anti-human α9 antibody ([…]) 012) had been recombinantly expressed, as described in WO 2009/088064) was started at an initial viable cell density of 1×10^6 cells/mL under the conditions of 36.5° C. and 5% CO2. At the start of culture, deoxyuridine, thymidine, and/or deoxycytidine was/were each added to a final concentration of 0 or 25 mg/L according to Table 2. The culture was continued until day 14 of culture while a feed culture medium was added everyday from day 2 of culture. Sampling was done at appropriate timings. Viable cell densities were measured by trypan blue exclusion method, and antibody concentrations were measured by protein A column HPLC. […] [table]

[2] = tested on: IgG-expressing CHO cell line (anti-human α9 antibody RY9A2v12 (M34L) 012); experiment: Fed-batch culture, comparison with uridine and thymidine (Example 8); settings: 25 mg/L of each added component
Experimental: Using a culture medium for animal cells as a cell growth medium, fed-batch culture of an IgG-expressing CHO cell line (a CHO cell line in which an anti-human α9 antibody ([…]) 012) had been recombinantly expressed, as described in WO 2009/088064) was started at an initial viable cell density of 1×10^6 cells/mL under the conditions of 36.5° C. and 5% CO2. At the start of culture, deoxyuridine, thymidine and deoxycytidine were each added to a final concentration of 25 mg/L. To provide comparative conditions, uridine and thymidine were added, at the start of culture, at concentrations of 7 mg/L and 0.24 mg/L, respectively (these concentrations are the same as those described in Examples of EP 1818392 B1). The culture was continued under each of the different conditions described above until day 14 of culture while a feed medium was added everyday from day 2 of culture. Sampling was done at appropriate timings. Viable cell densities were measured by trypan blue exclusion method, and antibody concentrations were measured by protein A column HPLC. […] In contrast, the highest viable cell densities were approximately 21×10^6 cells/mL in the case of addition of 25 mg/L deoxyuridine (dU25 mg/L), and about 31×10^6 cells/mL in the case of addition of 25 mg/L each of deoxyuridine, thymidine and deoxycytidine (dUdTdC25 mg/L); these values were higher than control.

[3] = tested on: Fab′ fragment-expressing CHO cell line (anti-human NGF antibody Fab′ fragment 1-15 (N52D-A)-Fab′); experiment: Fed-batch culture, comparison with uridine and thymidine (Example 9); settings: 25 mg/L of each added component
Experimental: Using a culture medium for animal cells as a cell growth medium, fed-batch culture of a Fab′ fragment-expressing CHO cell line (a CHO cell line in which an anti-human NGF antibody Fab′ fragment (1-15 (N52D-A)-Fab′) had been expressed, as described in WO 2013/022083) was started at an initial viable cell density of 1×10^6 cells/mL under the conditions of 36.5° C. and 5% CO2. At the start of culture, deoxyuridine, thymidine and deoxycytidine were each added to a final concentration of 25 mg/L. To provide comparative conditions, uridine and thymidine were added, at the start of culture, at concentrations of 7 mg/L and 0.24 mg/L, respectively (these concentrations are the same as those described in Examples of EP 1818392 B1). The culture was continued under each of the different conditions described above until day 14 of culture while a feed medium was added everyday from day 2 of culture. Sampling was done at appropriate timings. Viable cell densities were measured by trypan blue exclusion method, and antibody concentrations were measured by reverse-phase HPLC.

[4] = tested on: IgG-expressing CHO cell line (anti-human TSLP receptor antibody, fully human T7-27); experiment: Fed-batch culture with deoxyuridine added on day 2 (Example 1); trypan blue exclusion, protein A column HPLC
Experimental: Using a culture medium for animal cells as a cell growth medium, fed-batch culture of an IgG-expressing CHO cell line (a CHO cell line in which an anti-human thymic stromal lymphopoietin (TSLP) receptor antibody (fully human T7-27) had been recombinantly expressed, as described in WO 2015/020193) was started at an initial viable cell density of 1×10^6 cells/mL under the conditions of 36.5° C. and 5% CO2. On day 2 of culture, deoxyuridine was added to cultures to a final concentration of 10, 25, 50, 100 or 200 mg/L. The culture was continued until day 14 of culture while a feed medium was added everyday from day 2 of culture. Sampling was done at appropriate timings. Viable cell densities were measured by trypan blue exclusion study, and antibody concentrations were measured by protein A column HPLC. […] It was also observed that even addition of […] deoxyuridine enhancedantibody production during the cell culture until day 10 to day 12.

[5] = tested on: IgG-expressing CHO cell line (anti-human TSLP receptor antibody, fully human T7-27); experiment: Fed-batch culture, comparison with uridine and thymidine (Example 7); settings: 25 mg/L of each added component
Experimental: Using a culture medium for animal cells as a cell growth medium, fed-batch culture of an IgG-expressing CHO cell line (a CHO cell line in which an anti-human TSLP receptor antibody (fully human T7-27) had been recombinantly expressed, as described in WO 2015/020193) was started at an initial viable cell density of 1×10^6 cells/mL under the conditions of 36.5° C. and 5% CO2. At the start of culture, deoxyuridine, thymidine and deoxycytidine were each added to a final concentration of 25 mg/L. To provide comparative conditions, uridine (U) and thymidine were added, at the start of culture, at concentrations of 7 mg/L and 0.24 mg/L, respectively (these concentrations are the same as those described in Examples of EP 1818392 B1). The culture was continued under each of the different conditions described above until day 14 of culture while a feed culture medium was added everyday from day 2 of culture. Sampling was done at appropriate timings. Viable cell densities were measured by trypan blue exclusion method, and antibody concentrations were measured by protein A column HPLC.

[6] = tested on: IgG-expressing CHO cell line (anti-human TSLP receptor antibody, fully human T7-27); experiment: Fed-batch culture with deoxyuridine in the presence of thymidine and deoxycytidine (Example 2); settings: for highest viable cell density observed during the 14 days of culture: at start of culture; for antibody concentration on the final day of culture: day 14
Experimental: Using a culture medium for animal cells as a cell growth medium, fed-batch culture of an IgG-expressing CHO cell line (a CHO cell line in which an anti-human TSLP receptor antibody (fully human T7-27) had been recombinantly expressed, as described in WO 2015/020193) was started at an initial viable cell density of 1×10^6 cells/mL under the conditions of 36.5° C. and 5% CO2. At the start of culture, thymidine and deoxycytidine hydrochloride (in the working examples given in the subject specification, deoxycytidine hydrochloride was actually used as deoxycytidine, and the concentrations of deoxycytidine hydrochloride are expressed by using the converted concentration value of deoxycytidine from deoxycytidine hydrochloride.) were each added to cultures to a final concentration of 25 mg/L, and deoxyuridine was added to a final concentration of 10, 25, 40, 55, 70 or 85 mg/L. The culture was continued until day 14 of culture while a feed culture medium was added everyday from day 2 of culture. Sampling was done at appropriate timings. Viable cell densities were measured by trypan blue exclusion method, and antibody concentrations were measured by protein A column HPLC.

[7] = tested on: IgG-expressing CHO cell line (anti-human TSLP receptor antibody, fully human T7-27); experiment: Fed-batch culture with deoxyuridine, thymidine and deoxycytidine added on day 2 (Example 3); settings: 25 mg/L of each added component
Experimental: Using a culture medium for animal cells as a cell growth medium, fed-batch culture of an IgG-expressing CHO cell line (a CHO cell line in which an anti-human TSLP receptor antibody (fully human T7-27) had been recombinantly expressed, as described in WO 2015/020193) was started at an initial viable cell density of 1×10^6 cells/mL under the conditions of 36.5° C. and 5% CO2. On day 2 of culture, deoxyuridine was added to a final concentration of 25 mg/L, and thymidine and deoxycytidine were each added to cultures to a final concentration of 0 or 25 mg/L according to Table 1. The culture was continued until day 14 of culture while a feed culture medium was added everyday from day 2 of culture. Sampling was done at appropriate timings. Viable cell densities were measured by trypan blue exclusion method, and antibody concentrations were measured by protein A column HPLC. […] In contrast, in the case of addition of deoxyuridine in the presence of 25 mg/L each of thymidine and deoxycytidine (dU-dT-dC), the viable cell density, cell viability, and antibody concentration on the final day of the 14 days of culture were 12×10^6 cells/mL, approximately 78%, and 5.8 g/L, respectively; these values were higher than in the cases of addition of dU, addition of deoxyuridine and deoxycytidine (dU-dC), and addition of deoxyuridine and thymidine (dU-dT). […] [table]

[8] = tested on: IgG-expressing CHO cell line (anti-human α9 integrin antibody RY9A2v12 (M34L) 012); experiment: Batch culture with deoxyuridine (Example 6)
Experimental: Using a culture medium for animal cells as a cell growth medium, batch culture of an IgG-expressing CHO cell line (a CHO cell line in which an anti-human α9 integrin antibody (hereinafter referred to as “anti-human α9 antibody”) (RY9A2v12 (M34L) 012) had been recombinantly expressed, as described in WO 2009/088064) was started at an initial viable cell density of 0.3×10^6 cells/mL under the conditions of 36.5° C. and 5% CO2. At the start of culture, deoxyuridine was added to cultures to a final concentration of 5, 25, 100, 500 or 1000 mg/L, and then the culture was continued for 5 days. Sampling was done at appropriate timings. Viable cell densities were measured bytrypan blue exclusion method, and antibody concentrations were measured by protein A column HPLC.

[9] = 10 mg/L deoxyuridine with 25 mg/L each thymidine and deoxycytidine
[10] = 25 mg/L deoxyuridine with 25 mg/L each thymidine and deoxycytidine

For `Nc1ccn([C@H]2C[C@H](O)[C@@H](CO)O2)c(=O)n1` [deoxycytidine], the “effects when added alone (viable cell density, antibody concentration)” value (from here on “effects when added alone”) [1] was “no effect”.

In the case of `O=c1ccn([C@H]2C[C@H](O)[C@@H](CO)O2)c(=O)[nH]1` [deoxyuridine], the “highest viable cell density observed during the 14 days of culture” value ([2]; at start of culture, control about 16) is reported as “approximately 21 ×10^6 cells/mL”, the “antibody concentrations during culture versus control” value ([2]; FIG. 16) is reported as “higher levels than control” and the “highest viable cell density observed during the 14 days of culture” value ([3]; at start of culture, control approximately 14) is reported as “approximately 26 ×10^6 cells/mL”. For the same compound, the “protein concentration on the final day of culture” value ([3]; day 14, control approximately 2.2) was “approximately 3.1 g/L”, the “antibody production during the cell culture until day 10 to day 12” value ([4]; 10 mg/L deoxyuridine) was “enhanced” and the “highest viable cell density observed during the 14 days of culture” value ([4]; 25 mg/L deoxyuridine added on day 2, control about 10) was “about 18 ×10^6 cells/mL”. For the same compound, the “antibody concentration on the final day of culture” value ([4]; 25 mg/L deoxyuridine added on day 2, day 14, control 3.3) was 5.5 g/L, the “response to deoxyuridine addition (cell growth and antibody production)” value ([4]; any concentration tested from 10 mg/L to 200 mg/L) was “enhanced cell growth and antibody production” and the “highest viable cell density observed during the 14 days of culture” value ([5]; at start of culture, control approximately 12) was “approximately 21 ×10^6 cells/mL”. The “antibody concentration on the final day of culture” value ([5]; day 14, control approximately 2.9) was “approximately 4.6 g/L”, the “highest viable cell density observed during the 14 days of culture” value [6, 9] was “about 27 ×10^6 cells/mL” and the “antibody concentration on the final day of culture” value [6, 9] was 5.9 g/L. The “highest viable cell density observed during the 14 days of culture” value [6, 10] was “approximately 32 ×10^6 cells/mL”, the “antibody concentration on the final day of culture” value [6, 10] was 6.8 g/L and the “enhancing effects on cell growth and antibody production” value ([6]; deoxyuridine 25 mg/L or higher in the presence of thymidine and deoxycytidine, versus 10 mg/L) was “higher enhancing effects on cell growth and antibody production”. The “antibody concentration on the final day of the 14 days of culture” value [7] was 5.1 g/L, the “cell viability on the final day of the 14 days of culture” value [7] was “approximately 61%” and the “viable cell density on the final day of the 14 days of culture” value [7] was “approximately 7.6 ×10^6 cells/mL”. The “effects when added alone” value [1] was “produce effects”, the “highest viable cell density observed during the 5 days of culture” value ([8]; 100 mg/L deoxyuridine at start of batch culture, control approximately 7) was “approximately 10 ×10^6 cells/mL” and the “effect on cell growth” value ([8]; any concentration tested from 5 mg/L to 500 mg/L) was “enhancing effect on cell growth”.

`Cc1cn([C@H]2C[C@H](O)[C@@H](CO)O2)c(=O)[nH]c1=O` [thymidine] was tested, and the “effects when added alone” value [1] was “produce effects”.
